Data on twelve molecules can be found in PubChem BioAssay (NCI).

Among the test systems are SF-268 CNS; RPMI-8226 leukemia; HT29 colon; A549 NSCLC; OVCAR-3 ovarian; K-562 leukemia; CAKI-1 renal; NCI-H23 lung; SNB-75 CNS; COLO 205 colon.
What all share (assay): NCI-60 cell line screen, 48 h

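Cells were grown in 96-well plates and exposed to each compound for 48 hours at five concentrations; endpoints were interpolated linearly between bracketing concentrations, or set to the highest concentration if not reached. GI50 marks 50% less growth. Definition used: TGI = concentration required for complete inhibition of growth.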

On to `Cn1cc(-c2ccc3nnc(C(F)(F)c4ccc5ncccc5c4)n3n2)cn1`, for which the GI50 is 50.7 µM in the experiment with SF-268 CNS; 88.6 µM with RPMI-8226 leukemia; 63.6 µM in the experiment with HT29 colon; 60.2 µM in the experiment with A549 NSCLC; 80.5 µM in the experiment with OVCAR-3 ovarian; 78.1 µM in the experiment on K-562 leukemia. Further, the GI50 with CAKI-1 renal was 31.4 µM; in the experiment with NCI-H23 lung, 66 µM; in the experiment on SNB-75 CNS it was 22.2 µM; in the experiment with COLO 205 colon, 59.6 µM. For the same molecule, the TGI in the experiment on SF-268 CNS, in the experiment with RPMI-8226 leukemia, in the experiment on HT29 colon, with A549 NSCLC, in the experiment on OVCAR-3 ovarian and with K-562 leukemia was more than 100 µM in each case. For the same molecule, the TGI in the experiment on CAKI-1 renal is more than 100 µM; with NCI-H23 lung, more than 100 µM; in the experiment with SNB-75 CNS, more than 92.4 µM; with COLO 205 colon, more than 100 µM.
As to `COc1ccc2c(c1)CC1N(C)CCC13CCCCC23` (stereo not given), the TGI with SF-268 CNS, in the experiment with RPMI-8226 leukemia, with HT29 colon, with A549 NSCLC, in the experiment with OVCAR-3 ovarian and with K-562 leukemia was more than 100 µM each time. Further, the TGI in the experiment on CAKI-1 renal, in the experiment with NCI-H23 lung, with SNB-75 CNS and with COLO 205 colon was more than 100 µM in each case.
`CCOC(=O)Nc1cc(-c2ccc(C)c(NS(C)(=O)=O)c2)nn2c(C)nnc12`: the GI50 in the experiment on SF-268 CNS was 4.13 µM; in the experiment on RPMI-8226 leukemia it was 0.549 µM; in the experiment with HT29 colon, 0.809 µM; in the experiment with A549 NSCLC it was 3.07 µM; in the experiment with OVCAR-3 ovarian, 1.36 µM; in the experiment on K-562 leukemia, 1.73 µM. Moreover, the GI50 with CAKI-1 renal was 0.537 µM; in the experiment with NCI-H23 lung, 1.93 µM; in the experiment on SNB-75 CNS, 0.477 µM; in the experiment on COLO 205 colon it was 0.452 µM. In addition, the TGI was more than 100 µM with SF-268 CNS; 4.97 µM with RPMI-8226 leukemia; 14.1 µM in the experiment with HT29 colon; more than 100 µM in the experiment with A549 NSCLC; 6.56 µM in the experiment with OVCAR-3 ovarian; more than 100 µM with K-562 leukemia. In addition, the TGI in the experiment on CAKI-1 renal came out at 23.6 µM; with NCI-H23 lung, 9.16 µM; with SNB-75 CNS it was 9.13 µM; in the experiment on COLO 205 colon, 1.55 µM.
In the case of `C=C(C)C1CCC2(C(=O)O)CCC3(C)C(CCC4C5(C)CCC(O)C(C)(C)C5CCC43C)C12` (stereo not given), the TGI in the experiment on SF-268 CNS stood at 28.7 µM; in the experiment with RPMI-8226 leukemia, 63.5 µM; in the experiment with HT29 colon, 23.9 µM; in the experiment with A549 NSCLC, 24.1 µM; with OVCAR-3 ovarian, 7.98 µM; in the experiment on K-562 leukemia, 27.3 µM. The TGI came to 27.4 µM in the experiment on CAKI-1 renal, 12.7 µM in the experiment on NCI-H23 lung, 33 µM with SNB-75 CNS and 16.6 µM in the experiment with COLO 205 colon.
Take `O=C(NCCCl)NCc1ccccc1`: the TGI in the experiment with SF-268 CNS, in the experiment with RPMI-8226 leukemia, in the experiment on HT29 colon, in the experiment on A549 NSCLC, with OVCAR-3 ovarian and in the experiment on K-562 leukemia was more than 100 µM throughout. Also, the TGI in the experiment with CAKI-1 renal, in the experiment with NCI-H23 lung, in the experiment with SNB-75 CNS and in the experiment on COLO 205 colon was more than 100 µM throughout.
Regarding `Cc1cc(N(CCC#N)CCC#N)ccc1CC1N=C(c2ccccc2)OC1=O` (stereo not given), the TGI in the experiment with SF-268 CNS, with RPMI-8226 leukemia, in the experiment on HT29 colon, with A549 NSCLC, in the experiment with OVCAR-3 ovarian and with K-562 leukemia was more than 100 µM each time. In addition, the TGI in the experiment with CAKI-1 renal, in the experiment on NCI-H23 lung, with SNB-75 CNS and in the experiment on COLO 205 colon was more than 100 µM throughout.
For the molecule `CCCCC1N=CNc2c1ccc1c2[nH]c2ccccc21` (stereo not given), the TGI with SF-268 CNS amounted to 29.4 µM; in the experiment on RPMI-8226 leukemia, 5.13 µM; in the experiment with HT29 colon, 3.95 µM; in the experiment with A549 NSCLC, 10.6 µM; in the experiment on OVCAR-3 ovarian, 12.2 µM; in the experiment with K-562 leukemia, 5.4 µM. The TGI in the experiment on CAKI-1 renal was 9.16 µM; with NCI-H23 lung, 11 µM; in the experiment on SNB-75 CNS it was 5.54 µM; in the experiment with COLO 205 colon, 3.27 µM.
`CN(CCCCN)c1ccc2c(=O)[nH][nH]c(=O)c2c1`: the TGI in the experiment on SF-268 CNS, in the experiment with RPMI-8226 leukemia, in the experiment with HT29 colon, with A549 NSCLC, with OVCAR-3 ovarian and in the experiment on K-562 leukemia was more than 100 µM in each case. The TGI with CAKI-1 renal was more than 100 µM; in the experiment with NCI-H23 lung, 5.1 µM; with SNB-75 CNS it was more than 100 µM; in the experiment with COLO 205 colon, more than 100 µM.
Regarding `C/C(CC(=O)Nc1cccc(C)c1C)=N\NC(N)=S`, the TGI with SF-268 CNS, in the experiment on RPMI-8226 leukemia, with HT29 colon, in the experiment with A549 NSCLC, in the experiment with OVCAR-3 ovarian and in the experiment with K-562 leukemia was more than 100 µM throughout. Also, the TGI in the experiment with CAKI-1 renal, with NCI-H23 lung, in the experiment with SNB-75 CNS and in the experiment on COLO 205 colon was more than 100 µM in each case.
On to `O=C(O)c1c[nH]c2c(ccc3[nH]cc(C(=O)O)c(=O)c32)c1=O`, for which the TGI in the experiment on SF-268 CNS, in the experiment on RPMI-8226 leukemia, in the experiment with HT29 colon, in the experiment on A549 NSCLC, in the experiment on OVCAR-3 ovarian and with K-562 leukemia was more than 100 µM in each case. For the same molecule, the TGI is more than 100 µM in the experiment on CAKI-1 renal, more than 100 µM in the experiment with NCI-H23 lung, 75 µM in the experiment on SNB-75 CNS and more than 100 µM in the experiment on COLO 205 colon.
As to `COc1ccc(NC(=O)C2=CC(=O)c3ccc(O)cc3C2=O)c(OC)c1`, the TGI with SF-268 CNS, with RPMI-8226 leukemia, in the experiment with HT29 colon, with A549 NSCLC, with OVCAR-3 ovarian and in the experiment on K-562 leukemia was more than 100 µM throughout. In addition, the TGI in the experiment on CAKI-1 renal, with NCI-H23 lung, with SNB-75 CNS and in the experiment on COLO 205 colon was more than 100 µM throughout.
Turning to `N/C(=N\C(N)=N\c1nc2ccccc2s1)c1ccnc(Br)c1`, the GI50 with SF-268 CNS was 5.88 µM; in the experiment on RPMI-8226 leukemia it was 4.29 µM; in the experiment with HT29 colon, 3.55 µM; with A549 NSCLC it was 22.1 µM; with OVCAR-3 ovarian, 3.46 µM; in the experiment with K-562 leukemia, 3.46 µM. For the same molecule, the GI50 in the experiment with CAKI-1 renal is 3.33 µM; in the experiment with NCI-H23 lung it was 14.2 µM; in the experiment with SNB-75 CNS, 2.33 µM; in the experiment on COLO 205 colon, 11 µM. For the same molecule, the TGI in the experiment with SF-268 CNS was more than 100 µM; in the experiment with RPMI-8226 leukemia, more than 100 µM; with HT29 colon it was more than 100 µM; in the experiment with A549 NSCLC, more than 100 µM; in the experiment on OVCAR-3 ovarian it was 18.9 µM; with K-562 leukemia it was more than 100 µM. Also, the TGI in the experiment with CAKI-1 renal was more than 100 µM; in the experiment on NCI-H23 lung, more than 100 µM; in the experiment on SNB-75 CNS, 6.89 µM; in the experiment on COLO 205 colon, more than 100 µM.
